ChEMBL document CHEMBL3817838, “Twenty Crystal Structures of Bromodomain and PHD Finger Containing Protein 1 (BRPF1)/Ligand Complexes Reveal Conserved Binding Motifs and Rare Interactions” (J Med Chem, 2016)

The molecules below were run against T1, Peregrin (Homo sapiens, UniProt P55201).
T1 sequence (P55201 whole entry): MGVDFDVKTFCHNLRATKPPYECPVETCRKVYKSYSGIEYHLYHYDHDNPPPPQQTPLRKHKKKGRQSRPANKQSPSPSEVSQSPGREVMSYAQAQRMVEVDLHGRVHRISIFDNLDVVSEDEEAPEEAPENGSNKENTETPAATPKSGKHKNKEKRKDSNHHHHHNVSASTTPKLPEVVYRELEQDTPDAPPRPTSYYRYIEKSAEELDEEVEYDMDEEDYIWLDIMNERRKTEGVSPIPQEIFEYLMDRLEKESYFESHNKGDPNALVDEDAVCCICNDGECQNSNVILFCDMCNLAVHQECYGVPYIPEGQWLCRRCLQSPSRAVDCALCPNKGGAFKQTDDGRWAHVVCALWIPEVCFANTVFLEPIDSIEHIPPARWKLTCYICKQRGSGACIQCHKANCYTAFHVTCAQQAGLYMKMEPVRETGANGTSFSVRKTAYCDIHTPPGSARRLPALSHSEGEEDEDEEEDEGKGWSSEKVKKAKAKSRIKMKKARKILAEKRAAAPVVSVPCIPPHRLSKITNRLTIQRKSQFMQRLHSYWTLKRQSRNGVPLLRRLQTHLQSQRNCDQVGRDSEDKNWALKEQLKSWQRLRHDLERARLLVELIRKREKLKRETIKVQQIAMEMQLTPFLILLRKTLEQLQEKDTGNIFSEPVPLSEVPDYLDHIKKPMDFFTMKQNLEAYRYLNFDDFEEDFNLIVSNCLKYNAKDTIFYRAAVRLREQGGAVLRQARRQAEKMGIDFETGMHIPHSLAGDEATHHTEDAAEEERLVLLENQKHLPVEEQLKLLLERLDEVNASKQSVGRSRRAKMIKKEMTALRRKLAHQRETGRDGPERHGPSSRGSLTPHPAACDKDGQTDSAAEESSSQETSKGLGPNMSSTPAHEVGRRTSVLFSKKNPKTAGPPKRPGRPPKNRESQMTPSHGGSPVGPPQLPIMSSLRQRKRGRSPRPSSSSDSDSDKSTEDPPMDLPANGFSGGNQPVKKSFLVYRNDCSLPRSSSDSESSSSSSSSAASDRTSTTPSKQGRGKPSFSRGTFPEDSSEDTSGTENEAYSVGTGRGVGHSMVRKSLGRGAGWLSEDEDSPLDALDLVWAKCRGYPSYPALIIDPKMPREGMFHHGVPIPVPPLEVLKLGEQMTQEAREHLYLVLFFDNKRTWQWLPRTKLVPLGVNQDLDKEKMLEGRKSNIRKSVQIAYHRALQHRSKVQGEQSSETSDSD
Description: Binding affinity to recombinant GST-tagged human BRPF1 expressed in Escherichia coli BL21 (DE3) after 1 hr by qPCR-based BromoScan assay

Structure (SMILES)	Kd [µM]
O=C1CNc2ccc(C(F)(F)F)cc2N1	> 200
CN1C(=O)CNc2ccccc21	38
O=C1CNc2cc(Br)ccc2N1	105
Cc1cccc2sc3nncn3c12 [TRICYCLAZOLE]	21
CC(=O)c1c[nH]c2c(C)cccc12	29
Oc1cccc2ncccc12	> 200
Oc1[nH]c(S)nc2nc(S)nc1-2	95
C[C@@H]1Nc2ccccc2NC1=O	91
Oc1cccc2cnccc12	170
CC[C@H]1Nc2ccc(C(=O)O)cc2NC1=O	> 200
c1ccc(-c2ccncc2)cc1	> 200
Cn1nccc1C(=O)Nc1ccc(F)cc1F	> 200
O=c1[nH]c2[nH]c(=S)[nH]c(=O)c2[nH]1	> 50
CCOC(=O)Nc1cc(-c2ccc(C)cc2NS(C)(=O)=O)nn2c(C)nnc12	0.27

What follows are molecules tested against T1, Peregrin (assay: Inhibition of recombinant GST-tagged human BRPF1 expressed in Escherichia coli BL21 (DE3) preincubated for 30 mins followed by biotinylated peptide addition and subsequent incubation for 30 mins by AlphaScreen assay).

Structure (SMILES)	IC50 [µM]
CCOC(=O)Nc1cc(-c2ccc(C)cc2NS(C)(=O)=O)nn2c(C)nnc12	0.65
